{"source": "patent US20080051431A1", "about": "“Methods and compositions using immunomodulatory compounds in combination therapy” (priority 2006, published 2008)", "key": {"[1]": {"system": "Namalwa cells (human Burkitt Lymphoma)", "test": "Namalwa cell proliferation (cell count by flow cytometry; BrDu incorporation)", "assay_type": "cell-based", "conditions": "3 days; for effect of combination with VPA on cell proliferation arrest: FIGS. 3 and 5", "description": "(§1) Namalwa were cultured in RPMI-1640 media (Invitrogen, Carlsbad) supplemented with 10% fetal bovine serum, penicillin (100 u/ml) and streptomycin (100 μg/ml). CD34^+ cells were expanded in serum free conditions in Iscove's DMEM (Invitrogen, Carlsbad, Calif.) supplemented with 20% serum substitute BIT (StemCell Techologies, Vancouver, BC) in the presence of SCF (100 ng/ml), Flt3-L (100 ng/ml) and IL-3 (20 ng/ml) (Biosource International, Camarillo, Calif.). Namalwa cells and CD34+ cells were cultured for 3 and 6 days, respectively. DMSO 0.1%, Comp. 1 or Comp. 2, valproic acid (VPA) or trichostatin A (TSA) at the concentration indicated were added during the 3 or 6 days of culture. BM-CD34+ cells were cultured in Iscove's MDM with BIT 95000 (StemCell technologies) in the presence of growth factors. During the first 6 days CD34^+ cells were expanded with SCF (100 ng/ml), Flt3-L (100 ng/ml), and IL-3 (20 ng/ml) and then differentiated toward the erythroid lineage by culture with SCF (50 ng/ml) and EPO (2U or 4 U/ml) for 6 days. To study the effect of immunomodulatory compounds, CD34^+ progenitor cells were differentiated for a period of 6 days in the presence or absence of Comp. 1, Comp. 2 or hydroxyurea (HU).\n(§2) Namalwa and CD34^+ cells were plated at 4000 and 2000 cells per well, respectively into 96-well plate and treated with compound. After the time indicated, cells were counted and phenotypically analyzed by flow cytometry using the FACSarray. The percentage of apoptotic cells and CD34^+ cells were monitored using Propidium iodide staining (BD pharmingen, Chicago, Ill.) and the antibody anti-CD34 (PE-conjugated) (BD pharmingen), respectively, according to the manufacturer experimental procedure.\nNamalwa cells were plated at 10,000 cells per well in 96 well plates and treated with TSA and Comp. 1 at the concentration indicated for 3 days. The effects of TSA and Comp. 1 on cell proliferation were measured using BrDu incorporation kit (Roche, Germany)."}, "[2]": {"system": "Namalwa cells (human Burkitt Lymphoma)", "test": "Namalwa cell apoptosis (Propidium iodide staining, flow cytometry)", "assay_type": "cell-based", "conditions": "3 days; for effect of combination with VPA on inducing apoptosis: FIGS. 4 and 6", "description": "as §1, §2"}, "cord blood CD34+ cells": {"system": "cord blood CD34+ cells", "test": "Expansion of cord blood-derived CD34+ cells (cell count and anti-CD34 flow cytometry)", "assay_type": "cell-based", "conditions": "for effects of combination with TSA on CD34+ expansion, CD34+ cell number / effects of combination with TSA on CD34+ expansion, percent of CD34+ cells / effects of combination with VPA on CD34+ expansion, CD34+ cell number / effects of combination with VPA on CD34+ expansion, percent of CD34+ cells / number of CD34+ cells / percent of CD34+ cells: after 6 days of culture; for effects of combination with TSA on CD34+ expansion, CD34+ cell number: FIGS. 7 and 9; for effects of combination with TSA on CD34+ expansion, percent of CD34+ cells: FIGS. 8 and 10; for effects of combination with VPA on CD34+ expansion, CD34+ cell number: FIGS. 11 and 13; for effects of combination with VPA on CD34+ expansion, percent of CD34+ cells: FIGS. 12 and 14; for number of CD34+ cells / percent of CD34+ cells: compound alone, in a dose dependent manner; for kind of combination effect with VPA on CD34+ expansion (number and percent): tables in FIGS. 11-14", "description": "as §1, §2"}, "[3]": {"system": "CD34+ hematopoietic stem cells from a healthy donor", "test": "Fetal hemoglobin expression in CD34+ cells from a healthy donor differentiated towards erythrocytes", "assay_type": "cell-based", "conditions": "for percentage of HbF expressing cells: compound alone, healthy donor, after 6 days of culture, in a dose dependent manner; for effect of combination with HU on HbF expression: healthy (normal) donor, HU at 10 μM added to the growth cocktail, 6 days, FIG. 15", "description": "as §1\n(§3) After 6 days of culture, cells were washed with phosphate-buffered saline (PBS), fixed with 2% paraformaldehyde, permeabilized with cytopermeafix (BD-pharmingen), stained with HbF-PE (BD Pharmingen, San Diego, Calif.) and analyzed by flow cytometry (FACSAria, BD pharmingen)."}, "[4]": {"system": "CD34+ cells from sickle cell anemic patient (SCA)", "test": "Fetal hemoglobin expression in CD34+ cells from sickle cell anemic patient differentiated towards erythrocytes", "assay_type": "cell-based", "description": "Namalwa CSN.70 cells were purchased from DSMZ (Brauschweig, Germany). Bone marrow and cord blood CD34^+ cells were purchased Cambrex (Walkersville, Md.) and AllCells (Emeryville, Calif.), respectively. Bone marrow CD34+ cells from Sickle Cell Anemic (SCA) patient were provided by Christopher Morris (Loma Linda University Medical Center, CA).\nNamalwa were cultured in RPMI-1640 media (Invitrogen, Carlsbad) supplemented with 10% fetal bovine serum, penicillin (100 u/ml) and streptomycin (100 μg/ml). CD34^+ cells were expanded in serum free conditions in Iscove's DMEM (Invitrogen, Carlsbad, Calif.) supplemented with 20% serum substitute BIT (StemCell Techologies, Vancouver, BC) in the presence of SCF (100 ng/ml), Flt3-L (100 ng/ml) and IL-3 (20 ng/ml) (Biosource International, Camarillo, Calif.). Namalwa cells and CD34+ cells were cultured for 3 and 6 days, respectively. DMSO 0.1%, Comp. 1 or Comp. 2, valproic acid (VPA) or trichostatin A (TSA) at the concentration indicated were added during the 3 or 6 days of culture. […]\nas §3"}, "[5]": {"conditions": "cited from earlier work; for relative stability among polymorphs: Form A: among anhydrous polymorphs, Form E: in aqueous solvent systems; for hygroscopicity: polymorphic form of 3-(4-amino-1-oxo-1,3 dihydro-isoindol-2-yl)-piperidene-2,6-dione; for conversion upon heating (desolvation experiments): Form E: about 125° C. for about five minutes, Form B: 175° C. for about five minutes; for interconversion in solvent systems or at higher relative humidity: interconversion studies"}}, "note": "Entries after “also recorded” stand apart in the source; their conditions may differ."}
{"smiles": "Nc1cccc2c1C(=O)N(C1CCC(=O)NC1=O)C2=O", "note": "(stereo not drawn) [Compound 1, 4-(amino)-2-(2,6-dioxo(3-piperidyl))-isoindoline-1,3-dione]", "values": [{"measurement": "effect of combination with VPA on cell proliferation arrest", "setting": "[1]", "result": "synergistic and additive; also recorded: additive and synergistic"}, {"measurement": "effect of combination with TSA on cell proliferation arrest", "setting": "[1]; TSA at 10 nM, FIG. 1", "result": "synergistic and additive"}, {"measurement": "effect of combination with VPA on inducing apoptosis", "setting": "[2]", "result": "synergistic and additive; also recorded: additive and synergistic"}, {"measurement": "effect of combination with TSA on inducing apoptosis", "setting": "[2]; TSA at 10 nM, FIG. 2", "result": "synergistic and additive"}, {"measurement": "effect of the addition of TSA on the compound's effect on CD34+ expansion", "setting": "cord blood CD34+ cells; TSA at 10 nM added to the growth cocktail, 6 days", "result": "significantly improved"}, {"measurement": "effect of the addition of VPA on the compound's effect on CD34+ expansion", "setting": "cord blood CD34+ cells; VPA at 0.1, 0.3 and 1 mM added to the growth cocktail, 6 days", "result": "significantly improved"}, {"measurement": "effects of combination with TSA on CD34+ expansion, CD34+ cell number", "setting": "cord blood CD34+ cells", "result": "additive and synergistic"}, {"measurement": "effects of combination with TSA on CD34+ expansion, percent of CD34+ cells", "setting": "cord blood CD34+ cells", "result": "additive and synergistic"}, {"measurement": "effects of combination with VPA on CD34+ expansion, CD34+ cell number", "setting": "cord blood CD34+ cells", "result": "additive and synergistic"}, {"measurement": "effects of combination with VPA on CD34+ expansion, percent of CD34+ cells", "setting": "cord blood CD34+ cells", "result": "additive and synergistic"}, {"measurement": "number of CD34+ cells", "setting": "cord blood CD34+ cells", "result": "increased"}, {"measurement": "percent of CD34+ cells", "setting": "cord blood CD34+ cells", "result": "increased"}, {"measurement": "kind of combination effect on CD34+ expansion (number and percent), partner printed as VPA", "setting": "cord blood CD34+ cells; tables in FIGS. 7-10, which belong to the TSA experiments, 6 days", "result": "additive to Compound 1, and in some conditions, a synergistic effect was observed"}, {"measurement": "kind of combination effect with VPA on CD34+ expansion (number and percent)", "setting": "cord blood CD34+ cells; 6 days", "result": "additive to Compound 1, and in some conditions, a synergistic effect was observed"}, {"measurement": "percentage of HbF expressing cells", "setting": "[3]", "result": "increased"}, {"measurement": "effect of combination with HU on HbF expression", "setting": "[3]", "result": "significantly improved the effect of Compound 1 and Compound 2 on HbF expression in a synergistic manner"}, {"measurement": "effect of combination with HU on HbF expression", "setting": "[4]; HU at 10 μM added to the growth cocktail, 6 days, FIG. 16", "result": "significantly improved the effect of Compound 1 on HbF expression in a synergistic manner"}, {"measurement": "percentage of HbF expressing cells", "setting": "[4]; compound alone, after 6 days of culture, in a dose dependent manner", "result": "increased"}]}
{"smiles": "Nc1cccc2c1CN(C1CCC(=O)NC1=O)C2=O", "note": "(stereo not drawn) [Compound 2, 3-(4-amino-1-oxo-1,3-dihydro-isoindol-2-yl)-piperidine-2,6-dione]", "values": [{"measurement": "effect of combination with VPA on cell proliferation arrest", "setting": "[1]", "result": "synergistic and additive; also recorded: additive and synergistic"}, {"measurement": "effect of combination with VPA on inducing apoptosis", "setting": "[2]", "result": "synergistic and additive; also recorded: additive and synergistic"}, {"measurement": "effect of the addition of TSA on the compound's effect on CD34+ expansion", "setting": "cord blood CD34+ cells; TSA at 1 and 10 nM added to the growth cocktail, 6 days", "result": "significantly improved"}, {"measurement": "effect of the addition of VPA on the compound's effect on CD34+ expansion", "setting": "cord blood CD34+ cells; VPA at 0.1 and 0.3 mM added to the growth cocktail, 6 days", "result": "significantly improved"}, {"measurement": "effects of combination with TSA on CD34+ expansion, CD34+ cell number", "setting": "cord blood CD34+ cells", "result": "additive and synergistic"}, {"measurement": "effects of combination with TSA on CD34+ expansion, percent of CD34+ cells", "setting": "cord blood CD34+ cells", "result": "additive and synergistic"}, {"measurement": "effects of combination with VPA on CD34+ expansion, CD34+ cell number", "setting": "cord blood CD34+ cells", "result": "additive and synergistic"}, {"measurement": "effects of combination with VPA on CD34+ expansion, percent of CD34+ cells", "setting": "cord blood CD34+ cells", "result": "additive and synergistic"}, {"measurement": "number of CD34+ cells", "setting": "cord blood CD34+ cells", "result": "increased"}, {"measurement": "percent of CD34+ cells", "setting": "cord blood CD34+ cells", "result": "increased"}, {"measurement": "kind of combination effect with VPA on CD34+ expansion (number and percent)", "setting": "cord blood CD34+ cells; 6 days", "result": "additive to Compound 2, and in some conditions, a synergistic effect was observed"}, {"measurement": "percentage of HbF expressing cells", "setting": "[3]", "result": "increased"}, {"measurement": "effect of combination with HU on HbF expression", "setting": "[3]", "result": "significantly improved the effect of Compound 1 and Compound 2 on HbF expression in a synergistic manner"}]}
{"smiles": "Nc1cccc2c1CN(C1CCC(=O)NC1=O)C2=O", "note": "(stereo not drawn) [Form A, 3-(4-amino-1-oxo-1,3 dihydro-isoindol-2-yl)-piperidene-2,6-dione]", "values": [{"measurement": "relative stability among polymorphs", "setting": "[5]", "result": "most thermodynamically stable anhydrous polymorph"}, {"measurement": "hygroscopicity", "setting": "[5]", "result": "weakly or not hygroscopic"}]}
{"smiles": "Nc1cccc2c1CN(C1CCC(=O)NC1=O)C2=O", "note": "(stereo not drawn) [Form B, 3-(4-amino-1-oxo-1,3 dihydro-isoindol-2-yl)-piperidene-2,6-dione]", "values": [{"measurement": "conversion upon heating (desolvation experiments)", "setting": "[5]", "result": "can convert to Form F"}, {"measurement": "interconversion in solvent systems or at higher relative humidity", "setting": "[5]", "result": "converts to Form E in aqueous solvent systems, and converts to other forms in acetone and other anhydrous systems"}]}
{"smiles": "Nc1cccc2c1CN(C1CCC(=O)NC1=O)C2=O", "note": "(stereo not drawn) [Form C, 3-(4-amino-1-oxo-1,3 dihydro-isoindol-2-yl)-piperidene-2,6-dione]", "values": [{"measurement": "interconversion in solvent systems or at higher relative humidity", "setting": "[5]", "result": "can convert to Form B at higher relative humidities"}, {"measurement": "hygroscopicity", "setting": "[5]", "result": "not hygroscopic below about 85% RH"}]}
{"smiles": "Nc1cccc2c1CN(C1CCC(=O)NC1=O)C2=O", "note": "(stereo not drawn) [Form D, 3-(4-amino-1-oxo-1,3 dihydro-isoindol-2-yl)-piperidene-2,6-dione]", "values": [{"measurement": "interconversion in solvent systems or at higher relative humidity", "setting": "[5]", "result": "convert to Form B when stressed at higher relative humidities"}, {"measurement": "hygroscopicity", "setting": "[5]", "result": "either weakly or not hygroscopic"}]}
{"smiles": "Nc1cccc2c1CN(C1CCC(=O)NC1=O)C2=O", "note": "(stereo not drawn) [Form E, 3-(4-amino-1-oxo-1,3 dihydro-isoindol-2-yl)-piperidene-2,6-dione]", "values": [{"measurement": "relative stability among polymorphs", "setting": "[5]", "result": "most stable form"}, {"measurement": "conversion upon heating (desolvation experiments)", "setting": "[5]", "result": "can convert to Form B"}, {"measurement": "interconversion in solvent systems or at higher relative humidity", "setting": "[5]", "result": "can convert to Form C in an acetone solvent system and to Form G in a THF solvent system"}]}
